Legend:
[1] = system: ob/ob obese diabetic mice; test: Acute hypoglycemic effect in ob/ob obese diabetic mice: Expt 2; format: in vivo; conditions: single oral dose 250 mg/kg; for change in vivo at 250 mg/kg: Mus musculus, 6 hours, read-out: % Reduction vs Control
Method: Male ob/ob mice (50-55 grams; blood glucose ˜300 mg/dL) were divided into groups of five animals each, and given a single oral dose of test drug (250 mg/kg) suspended in 0.5% carboxymethylcellulose vehicle; a control group received oral vehicle alone.
Six hours after oral administration of test drugs or vehicle (control), blood samples were obtained from a tail vein and glucose content was determined with a glucometer.

[2] = system: high fat-fed C57Bl/6J mice; test: Circulating triglycerides, free fatty acids, insulin and leptin in high fat-fed C57Bl/6J mice; format: in vivo; conditions: for Free Fatty Acids / Triglycerides: after 2 weeks of drug treatments
Text: The high fat-fed mouse is a model for the hypertriglyceridemia and high circulating fatty acid levels, and the insulin and leptin resistance that are found in people at risk for and with obesity, diabetes, cardiovascular disease and other disorders. Male C57Bl/6J mice, approximately 8 weeks of age, were randomly assigned into groups of 6 animals. […] Mice were fed a high-fat diet (diet number D12451, containing 45% of calories as fat (Research Diets, New Brunswick, N.J.)) for 6 weeks. […]

db/db mice = test: Antidiabetic effects in db/db mice, 2 weeks (Example J); format: in vivo, C57BL/Ksola mice
Text: db/db mice have a defect in leptin signaling, leading to hyperphagia, obesity and diabetes. Moreover, unlike ob/ob mice on a C57BL/6J background, db/db mice on a C57BL/KS background undergo failure of their insulin-producing pancreatic islet cells, resulting in progression from hyperinsulinemia (associated with peripheral insulin resistance) to hypoinsulinemic diabetes.
A minimum of 7 days was allowed for adaptation after arrival.
Treatment cohorts were given daily oral doses of Vehicle (1% hydroxypropylmethylcellulose), Compounds BI, BS, BT, BU, BV or Fenofibrate for 2 weeks. At the end of the treatment period 100 μl of venous blood was withdrawn in a heparinized capillary tube from the retro-orbital sinus of db/db mice for serum chemistry analysis.

[3] = nonfasting, 113 mg/kg daily oral
[4] = serum, daily oral, dose per Table 12: 113 mg/kg

Row | SMILES | change in vivo at 250 mg/kg [1] | Blood Glucose after 6 hours [1] | also measured
1 | Cc1ccccc1COc1cccc(C(=O)CCC(=O)O)c1 [Compound AN, 4-(3-(2-Methylbenzyloxy)phenyl)-4-oxobutyric acid] | -50.2 ± 4.5% | 152 ± 11 mg/dL | 
2 | CCOC(=O)CCC(=O)c1ccc(OCc2c(F)cccc2F)cc1 [Compound AQ, Ethyl 4-(4-(2,6-difluorobenzyloxyl)phenyl)-4-oxobutyrate] | -27.9 ± 4.2% | 220 ± 17 mg/dL | 
3 | O=C(O)CCC(=O)c1ccc(OCCc2cccs2)cc1 [Compound AR, 4-(4-(2-(2-Thienyl)ethoxy)phenyl)-4-oxobutyric acid] | -41.3 ± 4.2% | 179 ± 14 mg/dL | 
4 | O=C(O)CCC(=O)c1c(F)cccc1F [Compound AS, 4-(2,6-Difluorophenyl)-4-oxobutyric acid] | -45.2 ± 2% | 167 ± 28 mg/dL | 
5 | Cc1ccc(C)c(COc2ccc(C(=O)CCC(=O)O)cc2)c1 [Compound AT, 4-(4-(2,5-Dimethylbenzyloxy)phenyl)-4-oxobutyric acid] | -35.1 ± 2.3% | 198 ± 28 mg/dL | 
6 | O=C(O)CCC(=O)c1ccc(OCc2cc(F)ccc2F)cc1 [Compound AU, 4-(4-(2,5-Difluorobenzyloxy)phenyl)-4-oxobutyric acid] | -26.6 ± 2.8% | 224 ± 26 mg/dL | 
7 | O=C(O)CCC(=O)c1ccc(OCc2ccc(F)cc2F)cc1 [Compound AV, 4-(4-(2,4-Difluorobenzyloxy)phenyl)-4-oxobutyric acid] | -32.1 ± 3% | 207 ± 23 mg/dL | 
8 | O=C(O)CCC(=O)c1ccc(OCC2CC2)cc1 [Compound AX, 4-(4-((Cyclopropyl)-methoxy)phenyl)-4-oxobutyric acid] | -45.9 ± 2.4% | 165 ± 23 mg/dL | 
9 | O=C(O)CCC(=O)c1ccc(OCc2ccccc2C(F)(F)F)cc1 [Compound AY, 4-(4-(2-Trifluoromethylbenzyloxy)phenyl)-4-oxobutyric acid] | -39.3 ± 2.9% | 185 ± 21 mg/dL | 
10 | O=C(O)CCSCc1ccc(OCc2c(F)cccc2F)cc1 [Compound AZ, 3-[(4-(2,6-Difluorobenzyloxy)phenyl)-methylthio]propionic acid] | -39 ± 6.1% | 186 ± 10 mg/dL | 
11 | Cc1cccc(C)c1COc1cccc(C(=O)CCC(=O)[O-])c1.[Na+] [Compound BL, 4-(3-(2,6-Dimethylbenzyloxy)phenyl)-4-oxobutyric acid Sodium salt] |  |  | Free Fatty Acids ([2]; 10 mg/kg oral gavage): 1571.8 ± 100.9 µmol/L; Triglycerides ([2]; 10 mg/kg oral gavage): 80 ± 12.2 mg/dL; Free Fatty Acids ([2]; 30 mg/kg oral gavage): 1413.2 ± 228.7 µmol/L; Triglycerides ([2]; 30 mg/kg oral gavage): 66.4 ± 13.7 mg/dL; Free Fatty Acids ([2]; 100 mg/kg oral gavage): 1133.5 ± 132.7 µmol/L; Triglycerides ([2]; 100 mg/kg oral gavage): 41 ± 5.6 mg/dL; serum triglycerides and free fatty acids ([2]; oral gavage): effective at lowering; insulin serum levels ([2]; oral gavage, after 4 weeks of drug treatments (FIG. 1)): effective at lowering; leptin serum levels ([2]; oral gavage, after 4 weeks of drug treatments (FIG. 2)): effective at lowering
12 | CC(C)OC(=O)C(C)(C)Oc1ccc(C(=O)c2ccc(Cl)cc2)cc1 [Fenofibrate, reference compound] |  |  | Glucose (db/db mice; [3]): 563.2 ± 49.0 mg/dL; Glucose (% of Control) (db/db mice; [3]): 81 ± 7 % of Control; Free Fatty Acids ± SEM (db/db mice; [4]): 3318.5 ± 208.7 µM; Triglycerides ± SEM (db/db mice; [4]): 109.3 ± 9.1 mg/dL
13 | Cc1cccc(Nc2cc(Cl)nc(SCC(=O)O)n2)c1C [Wy14643, reference compound] |  |  | Free Fatty Acids ([2]; 10 mg/kg oral gavage): 1512.2 ± 172.9 µmol/L; Triglycerides ([2]; 10 mg/kg oral gavage): 70.6 ± 10.8 mg/dL; Free Fatty Acids ([2]; 30 mg/kg oral gavage): 1676 ± 237 µmol/L; Triglycerides ([2]; 30 mg/kg oral gavage): 88 ± 12.5 mg/dL; Free Fatty Acids ([2]; 100 mg/kg oral gavage): 1839.8 ± 154.8 µmol/L; Triglycerides ([2]; 100 mg/kg oral gavage): 88.4 ± 18.8 mg/dL
